pIC50: −log10 of the molar value.
Tests used:
Karpas-299 = assay: Antiproliferative activity on KARPAS-299 cells (MTS); type: cell-based; conditions: Homo sapiens, concentration at which the number of living cells is reduced 2-fold compared with absence of compound
Description: Furthermore, antiproliferative activity of the compounds of this invention can be studied on cell lines KARPAS-299 of anaplastic large cell lymphoma according to the following procedure. KARPAS-299 cells cultured in RPMI 1640 growth medium, are transferred in duplicate to 96-well culture plate (10,000 cells per well) and a solution of the analytes in a growth medium is added to them at various concentrations (final volume in each well—100 μl). The solids were dissolved in DMSO and then the solution was diluted with DMSO to the desired concentration, mixed with an equal volume of growth medium and transferred to wells with the cells. The final concentration of compounds ranged from 0.5 nM to 10 μM. DMSO was used as a control (in the same amount as that of adding solutions of substances). After the cells incubation with the compounds for 72 hours, the number of viable cells was determined. For this purpose, old medium was removed, 100 μl of fresh medium and 40 μl of MTS solution, containing 5 mg/ml PBS were added to each well. The plate was incubated for 2 hours at 37° C., then 100 μl of DMSO was added to each well and mixed for 1 minute. Then, the optical density was determined at 490 nm and percentage of inhibition of proliferation was calculated in comparison with the control (containing no analytes).

[1] = in vivo; cited from earlier work
NCI-H3122 cells = assay: Efficacy in animal model of non-small cell lung cancer (NCI-H3122 tumors); type: in vivo, male athymic mice; conditions: 30 mg/kg daily by gavage, 20 days; ratio of average tumor volume treatment/control
Description: The male athymic mice were used for the studies. NCI-H3122 cells in an amount of 1×10^7 were administered in the form of 0.2 ml Matrigel solution (BD Pharmingen) in the left leg of the mouse under ketamine-xylazine anesthesia. One week after cells injection mice were divided into the treatment and control groups and randomized by tumor size. Tumor volume was calculated according to the formula V=0.5×W^2×L. The control animals received daily 0.3 ml of 0.5% of methylcellulose solution, animals of the treatment group −0.3 ml of 0.5% of methylcellulose suspension containing the drug in a test dose. The solutions were administered by gavage. The treatment continued for 20 days. The ratio of the average volume for the treatment/control groups (% T/C) was calculated after treatment to determine the effectiveness of inhibition of tumor growth. The analysis of the statistical significance using Dunnett's test was performed for the data collection. Effectiveness of the test compounds in a dose of 30 mg/kg is introduced below.

Karpas-299 cells = assay: Efficacy in animal model of anaplastic large cell lymphoma (Karpas-299 tumors); type: in vivo, SCID-mice; conditions: 30 mg/kg daily by gavage, 23 days; ratio of average tumor volume treatment/control
Description: SCID-mice with tumors that have developed as a result of the introduction of Karpas-299 cells were used for the studies. When tumor size reached 220 mm^3 animals were divided into the treatment and control groups and were randomized by tumor size. The control animals received daily 0.3 ml of 0.5% of methylcellulose solution, animals of the treatment group—0.3 ml of 0.5% of methylcellulose suspension containing the drug in a test dose. The solutions were administered by gavage. The treatment continued for 23 days. The ratio of the average volume for the treatment/control groups (% T/C) was calculated after treatment to determine the effectiveness of inhibition of tumor growth. The analysis of the statistical significance using Dunnett's test was performed for the data collection. Effectiveness of the test compounds in a dose of 30 mg/kg is introduced below.

pIC50 (Karpas-299) | SMILES | further results
> 6.00 | Fc1ccc(Cl)c(CN2CCNc3nnc(-c4nnc(C(F)(F)F)[nH]4)cc32)c1Cl | 
> 7.00 | CN1CCC(c2nnc(-c3cc4c(nn3)NCCN4Cc3c(Cl)ccc(F)c3Cl)o2)CC1 | 
> 6.00 | CC(C)c1noc(-c2cc3c(nn2)NCCN3Cc2c(Cl)ccc(F)c2Cl)n1 | 
> 7.00 | Fc1ccc(Cl)c(CN2CCNc3nnc(-c4ccc(N5CCOCC5)cc4)cc32)c1Cl | 
> 7.00 | C[C@H](c1c(Cl)ccc(F)c1Cl)N1CCNc2nnc(-c3ccc(N4CCCC4)nc3)cc21 | 
> 6.00 | O=C(NCCc1ccccc1)c1cc2c(nn1)NCCN2Cc1c(Cl)ccc(F)c1Cl | 
> 6.00 | Clc1ccc(Cl)c(CN2CCNc3nnc(CNC4CCNCC4)cc32)c1 | 
> 7.00 | O=C(c1cc2c(nn1)NCCN2Cc1c(Cl)ccc(F)c1Cl)N1CCN(c2ccccc2)CC1 | 
> 7.00 | C[C@H](c1c(Cl)ccc(F)c1Cl)N1CCNc2nnc(Nc3cccc(N4CCOCC4)c3)cc21 | 
> 7.00 | C[C@H](c1cc(Cl)ccc1C(F)(F)F)N1CCNc2nnc(Nc3cccc(N4CCOCC4)c3)cc21 | 
> 7.00 | COc1cc(N2CCC(N(C)C)CC2)ccc1Nc1cc2c(nn1)NCCN2Cc1c(Cl)ccc(F)c1Cl | 
> 7.00 | C[C@H](c1c(Cl)ccc(F)c1Cl)N1CCNc2nnc(-c3nc(C4CCNCC4)no3)cc21 | 
> 7.00 | Clc1ccc(Cl)c(CN2CCNc3nnc(-c4nnc(C5CCNCC5)[nH]4)cc32)c1 [drawing 218] | 
> 7.00 | CC(c1c(Cl)ccc(F)c1Cl)N1CCNc2nnc(C(=O)Nc3ccc(C(=O)N4CCCC4)cc3)cc21 (stereo not shown) [drawing 228] | 
> 7.00 | CN1CCN(C(=O)c2ccc(NC(=O)c3cc4c(nn3)NCCN4Cc3cc(Cl)ccc3Cl)cc2)CC1 [drawing 231] | 
> 7.00 | O=C(Nc1ccc(N2CCOCC2)cc1)c1cc2c(nn1)NCCN2Cc1cc(Cl)ccc1Cl [drawing 232] | 
> 7.00 | Fc1ccc(Cl)c(CN2CCNc3nnc(-c4nnc(C5CCNCC5)[nH]4)cc32)c1Cl [drawing 233] | 
> 7.00 | Clc1ccc(Cl)c(CN2CCNc3nnc(-c4nnc(C5CCNCC5)o4)cc32)c1 [drawing 234] | 

The remaining lines, values behind:

SMILES | pIC50 (Karpas-299) | further results
C[C@@H](Oc1cc(-c2cnn(C3CCNCC3)c2)cnc1N)c1c(Cl)ccc(F)c1Cl [Crizotinib] |  | penetration through the blood-brain barrier [1]: does not penetrate through the blood-brain barrier
Clc1ccc(Cl)c(CN2CCNc3nnc(-c4nnc(C5CCNCC5)[nH]4)cc32)c1 [drawing 236] |  | % T/C (NCI-H3122 cells): <40%
CC(c1c(Cl)ccc(F)c1Cl)N1CCNc2nnc(C(=O)Nc3ccc(C(=O)N4CCCC4)cc3)cc21 (stereo not shown) [drawing 237] |  | % T/C (NCI-H3122 cells): <40%
CN1CCN(C(=O)c2ccc(NC(=O)c3cc4c(nn3)NCCN4Cc3cc(Cl)ccc3Cl)cc2)CC1 [drawing 238] |  | % T/C (NCI-H3122 cells): <40%
O=C(Nc1ccc(N2CCOCC2)cc1)c1cc2c(nn1)NCCN2Cc1cc(Cl)ccc1Cl [drawing 239] |  | % T/C (NCI-H3122 cells): <40%
Fc1ccc(Cl)c(CN2CCNc3nnc(-c4nnc(C5CCNCC5)[nH]4)cc32)c1Cl [drawing 240] |  | % T/C (NCI-H3122 cells): <40%
Clc1ccc(Cl)c(CN2CCNc3nnc(-c4nnc(C5CCNCC5)o4)cc32)c1 [drawing 241] |  | % T/C (NCI-H3122 cells): <40%
Clc1ccc(Cl)c(CN2CCNc3nnc(-c4nnc(C5CCNCC5)[nH]4)cc32)c1 [drawing 242] |  | % T/C (Karpas-299 cells): <40%
CC(c1c(Cl)ccc(F)c1Cl)N1CCNc2nnc(C(=O)Nc3ccc(C(=O)N4CCCC4)cc3)cc21 (stereo not shown) [drawing 243] |  | % T/C (Karpas-299 cells): <40%
CN1CCN(C(=O)c2ccc(NC(=O)c3cc4c(nn3)NCCN4Cc3cc(Cl)ccc3Cl)cc2)CC1 [drawing 244] |  | % T/C (Karpas-299 cells): <40%
O=C(Nc1ccc(N2CCOCC2)cc1)c1cc2c(nn1)NCCN2Cc1cc(Cl)ccc1Cl [drawing 245] |  | % T/C (Karpas-299 cells): <40%
Fc1ccc(Cl)c(CN2CCNc3nnc(-c4nnc(C5CCNCC5)[nH]4)cc32)c1Cl [drawing 246] |  | % T/C (Karpas-299 cells): <40%
Clc1ccc(Cl)c(CN2CCNc3nnc(-c4nnc(C5CCNCC5)o4)cc32)c1 [drawing 247] |  | % T/C (Karpas-299 cells): <40%

— patent publication US9695182B2, “Chemical compounds (derivatives) and their application for the treatment of oncological diseases” (LIMITED LIABILITY COMPANY “NATIONAL PHARMACEUTICAL …, priority 2013, dated 2017)
